Earlier results, collected in PMC3074188 (Journal of natural products, 2010).

System: HT-29 cell line

CC(C)C[C@H](NC(=O)[C@H](Cc1ccccc1)NC(=O)c1cnccn1)B(O)O [bortezomib]
sensitivity of HT-29 cell line (in words): sensitive
